Test results reported in US7420001B2 (Wyeth, priority 2003, dated 2008).

How the values were obtained:
MMP-2 = molecular target: T1, MMP-2 (Homo sapiens, UniProt P08253); assay: In-vitro fluorescence assay of MMP-2 activity; type: biochemical; conditions: recombinant human MMP-2; read-out: MMP-2 IC50
T1 construct: purchased Oncogene Research Products (Calbiochem) PF023
T1 sequence (P08253 110-660): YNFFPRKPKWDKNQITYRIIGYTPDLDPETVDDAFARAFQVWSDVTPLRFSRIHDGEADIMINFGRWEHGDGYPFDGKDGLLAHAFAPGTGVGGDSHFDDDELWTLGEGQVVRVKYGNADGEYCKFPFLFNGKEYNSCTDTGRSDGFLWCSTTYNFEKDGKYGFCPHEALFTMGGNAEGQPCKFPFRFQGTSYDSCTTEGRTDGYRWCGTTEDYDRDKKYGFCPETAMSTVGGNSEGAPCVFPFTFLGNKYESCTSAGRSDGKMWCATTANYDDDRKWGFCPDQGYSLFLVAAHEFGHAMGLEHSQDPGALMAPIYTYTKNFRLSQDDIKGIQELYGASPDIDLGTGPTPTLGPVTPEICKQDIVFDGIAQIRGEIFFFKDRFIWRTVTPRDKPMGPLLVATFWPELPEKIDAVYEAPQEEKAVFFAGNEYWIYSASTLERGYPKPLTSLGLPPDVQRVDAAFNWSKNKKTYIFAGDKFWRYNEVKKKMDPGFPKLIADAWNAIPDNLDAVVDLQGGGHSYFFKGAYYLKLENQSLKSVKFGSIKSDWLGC

MMP-7 = molecular target: T2, MMP-7 (Homo sapiens, UniProt P09237); assay: MMP-7 activity assay; type: biochemical; conditions: recombinant human MMP-7
T2 construct: Active, recombinant human MMP-7 was purchased from Calbiochem (catalog #444270; expressed in E. coli, 19 kDa); purchased Calbiochem 444270; host or cells: E. coli
T2 sequence (P09237 95-267): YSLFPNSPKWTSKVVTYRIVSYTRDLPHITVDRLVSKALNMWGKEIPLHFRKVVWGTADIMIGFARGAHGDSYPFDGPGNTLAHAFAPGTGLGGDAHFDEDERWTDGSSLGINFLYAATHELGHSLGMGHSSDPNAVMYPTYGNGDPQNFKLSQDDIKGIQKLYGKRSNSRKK
Method: (§1) A continuous assay was used in which the substrate is a synthetic peptide containing a fluorescent group (7-methoxycoumarin; Mca) that is quenched by energy transfer to a 2,4-dinitrophenyl group. […] The concentration of the substrate stock was spectrophotometrically determined using the extinction coefficient at 410 nm of 7500 M^−1cm^−1. The assay buffer (pH 7.4) consisted of 50 mM Hepes, 100 mM NaCl, 5 mM CaCl2, and 0.005% Brij-35. Each well of black polystyrene 96-well plates contained a reaction consisting of assay buffer, purified MMP (final concentration of 1.0 nM, prepared by dilution with assay buffer), and varied concentrations of inhibitor (prepared by serial dilution in DMSO in 96-well polypropylene plates). The plates were then incubated at room temperature for 30 minutes. […] The final DMSO concentration in the assay was 10% and the final, total assay volume was 200 μl. […] Plots of the inhibitor concentration vs. the initial cleavage rate were fit to the following equation in order to determine IC50 values: y=Vmax*(1−(x^n/(K^n+x^n))), whereby x=inhibitor concentration, y=initial rate, Vmax=initial rate in the absence of inhibitor, n=slope factor, and K=IC50 for the inhibition curve.

MMP-9 = molecular target: T3, MMP-9 (Homo sapiens, UniProt P14780); assay: MMP-9 activity assay; type: biochemical; conditions: recombinant human MMP-9
T3 construct: Active, recombinant human MMP-9 (83 kDa) was purchased from Calbiochem (catalog #PF024); purchased Calbiochem PF024
Method: as §1
Active, recombinant human MMP-9 (83 kDa) was purchased from Calbiochem (catalog #PF024).

MMP-13 = molecular target: T4, MMP-13 (Homo sapiens, UniProt P45452); assay: In-vitro fluorescence assay of MMP-13 activity; type: biochemical; conditions: recombinant human catalytic domain of MMP-13; read-out: MMP-13 IC50
T4 construct: made in house

MMP-12 = molecular target: T5, MMP-12 (Homo sapiens, UniProt P39900); assay: In vitro fluorescence assay of MMP-12 activity; type: biochemical; conditions: recombinant human MMP-12
T5 construct: made in house
Method: A continuous, assay was used in which the substrate is a synthetic peptide containing a fluorescent group (7-methoxycoumarin; Mca) which is quenched by energy transfer to a 2,4-dinitrophenyl group. […] The concentration of the substrate stock was spectrophotometrically determined using the extinction coefficient at 410 nm of 7500 M^−1cm^−1. The assay buffer (pH 7.4) consisted of 50 mM Hepes, 100 mM NaCl, 5 mM CaCl2, and 0.005% Brij-35. […] The plates were then incubated at room temperature for 30 minutes. The enzymatic reactions were initiated by adding substrate to a final concentration of 20 μM and they were mixed by pipetting up and down. The final DMSO concentration in the assay was 10% and the final, total assay volume was 200 μl.

MMP-14 = molecular target: T6, MMP-14 (Homo sapiens, UniProt P50281); assay: In-vitro fluorescence assay of MMP-14 activity; type: biochemical; conditions: recombinant human catalytic domain of MMP-14
T6 construct: 20 kDa; purchased Chemicon International, Inc. CC 1041
Method: A continuous assay was used in which the substrate is a synthetic peptide containing a fluorescent group (7-methoxycoumarin; Mca) which is quenched by energy transfer to a 2,4-dinitrophenyl group. […] The substrate used was Mca-PQGL-(3-[2,4-dinitrophenyl]-L-2,3-diaminopropionyl)-AR-OH (denoted as Wammp-5, custom synthesized by AnaSpec, Inc.). The assay buffer consisted of 50 mM Hepes (pH 7.4), 100 mM NaCl, 5 mM CaCl2, and 0.005% Brij-35. […] The enzymatic reactions were initiated by adding the substrate to a final concentration of 20 μM, and mixing 10 times with a pipette. The final DMSO concentration in the assay was 6.0%.
Plots of the inhibitor concentration vs. the percent inhibition were fit to the following equation: y=(a−d)/[1+(x/c)^b]+d, a general sigmoidal curve with Hill slope, a to d. x is the inhibitor concentration under test. y is the percent inhibition. a is the limiting response as x approaches zero. As x increases without bound, y tends toward its limit d. c is the inflection point (IC50) for the curve. That is, y is halfway between the lower and upper asymptotes when x=c. b is the slope factor or Hill coefficient.

Aggrecanase-1 = molecular target: T7, Aggrecanase-1 (Homo sapiens, UniProt O75173); assay: Aggrecanase-1 FRET assay; type: biochemical; conditions: rAgg1, WAAG-3R substrate; read-out: AGG-1 IC50
T7 sequence (O75173 213-837): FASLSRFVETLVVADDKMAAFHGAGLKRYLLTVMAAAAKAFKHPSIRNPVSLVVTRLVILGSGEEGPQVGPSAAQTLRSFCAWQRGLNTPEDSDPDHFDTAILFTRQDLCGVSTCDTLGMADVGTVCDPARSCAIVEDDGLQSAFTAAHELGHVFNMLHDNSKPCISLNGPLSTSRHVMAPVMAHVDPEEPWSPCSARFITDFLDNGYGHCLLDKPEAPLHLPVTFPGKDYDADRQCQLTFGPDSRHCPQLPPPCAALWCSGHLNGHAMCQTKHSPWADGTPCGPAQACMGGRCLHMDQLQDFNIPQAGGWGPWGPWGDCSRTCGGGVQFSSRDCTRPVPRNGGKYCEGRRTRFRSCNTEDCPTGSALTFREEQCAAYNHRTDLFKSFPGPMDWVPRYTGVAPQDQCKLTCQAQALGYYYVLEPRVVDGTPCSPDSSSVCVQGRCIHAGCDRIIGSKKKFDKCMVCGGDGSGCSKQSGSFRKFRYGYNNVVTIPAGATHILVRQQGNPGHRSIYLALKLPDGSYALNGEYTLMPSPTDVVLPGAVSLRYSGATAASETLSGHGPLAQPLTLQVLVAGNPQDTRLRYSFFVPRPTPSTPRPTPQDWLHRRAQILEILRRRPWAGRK
Method: h. Aggrecanase-1 FRET Assay:
The following protocol was used: • Fluorimeter was started and temperature set to 30° C., about 30 min before setting up the assay. The following reagents are used: • Buffer: 50 mM HEPES, pH 7.5, 100 mM NaCl, 5 mM CaCl2, 0.1% CHAPS, 5% glycerol. • rAgg1: 5 μg/ml (final concentration in the assay): • Substrate: WAAG-3R (MWT=1645.8, Anaspec, stored at 4° C.). Make a stock at 2 mg/ml in 100% DMSO. Measure the absorbance at 354 nm (ε=18172 M^−1 cm^−1) to determine the exact concentration. Dilute to 62.5 μM in buffer. Store unused 100% DMSO stock at −80° C. Final concentration of substrate in the assay is 25 μM. […] Make up inhibitors at 10× starting concentration in 100% DMSO. Perform serial dilutions (in duplicate) across the nunc plate in 100% DMSO; • Dilution plates: Nunc, polypropylene low binding (Nalgene) • Assay plate: Fluoronunc (Nalgene) • Fluorimeter: GeminiXS (Molecular Devices).; • The assay is performed as follows: The plates are set up so that the final column (12) is used for controls. Total reaction volume is 100 μl. Each compound is assayed in duplicate, so 4 compounds are screened per plate. • 1) Add buffer to the entire 96-well plate (30 ρl/well). • 2) Dilute rAgg1 to 25 μg/ml buffer just prior to addition on the plate. Add 20 μl/well to all wells. Mix 6 times. • 3) Add 10 μl/well of 10× inhibitors from the working plate, except column 12. Mix 6 times. […] Mix 6 times.
The reaction is monitored for 30-40 min at 30° C. λex: 340 nm and λ em: 420 nm). The fluorescence is linear during this time and the slope of the line (Vmax/sec) represents the initial reaction rate, ν. The maximal rate of cleavage of substrate is determined in the absence of inhibitor. The percent inhibition of activity in the presence of inhibitor is calculated as follows:
[formula] The IC50 was obtained by fitting the initial rate, ν, or % inhibition at each concentration of inhibitor to the following equation in Excel. y=(a−d)/(1+C/IC50)^n)+d This model describes a sigmoidal curve with an adjustable baseline, […]. y is the % inhibition or initial rate of reaction, C is the concentration of inhibitor under test. a is the limiting response as C approaches zero. […] The sign of n is positive when the response increases with increasing dose and is negative when the response decreases with increasing dose (inhibition).

MMP-1 = molecular target: T8, MMP-1 (Homo sapiens, UniProt P03956)
T8 sequence (P03956 100-269 limits assumed): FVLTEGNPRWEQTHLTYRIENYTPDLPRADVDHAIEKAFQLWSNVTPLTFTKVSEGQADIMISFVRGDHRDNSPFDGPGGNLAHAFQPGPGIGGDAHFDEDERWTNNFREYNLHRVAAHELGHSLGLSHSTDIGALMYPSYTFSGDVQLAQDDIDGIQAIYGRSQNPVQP

T3 sequence (P14780 107-707 limits assumed): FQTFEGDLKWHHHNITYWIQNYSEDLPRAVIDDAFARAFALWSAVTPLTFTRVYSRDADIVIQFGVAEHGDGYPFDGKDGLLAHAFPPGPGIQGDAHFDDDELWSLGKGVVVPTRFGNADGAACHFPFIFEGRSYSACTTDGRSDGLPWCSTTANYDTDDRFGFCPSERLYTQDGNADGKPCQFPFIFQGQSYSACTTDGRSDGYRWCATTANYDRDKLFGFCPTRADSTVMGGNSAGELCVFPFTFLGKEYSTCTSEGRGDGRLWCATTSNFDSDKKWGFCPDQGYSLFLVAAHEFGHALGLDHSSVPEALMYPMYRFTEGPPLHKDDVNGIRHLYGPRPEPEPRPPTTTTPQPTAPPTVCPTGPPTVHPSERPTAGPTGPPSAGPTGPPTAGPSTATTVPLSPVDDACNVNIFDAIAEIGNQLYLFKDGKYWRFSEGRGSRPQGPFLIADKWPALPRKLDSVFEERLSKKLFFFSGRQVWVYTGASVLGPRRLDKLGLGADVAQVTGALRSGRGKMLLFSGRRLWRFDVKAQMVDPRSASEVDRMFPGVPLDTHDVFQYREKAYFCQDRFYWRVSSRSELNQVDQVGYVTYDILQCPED
T5 sequence (P39900 106-280 limits assumed): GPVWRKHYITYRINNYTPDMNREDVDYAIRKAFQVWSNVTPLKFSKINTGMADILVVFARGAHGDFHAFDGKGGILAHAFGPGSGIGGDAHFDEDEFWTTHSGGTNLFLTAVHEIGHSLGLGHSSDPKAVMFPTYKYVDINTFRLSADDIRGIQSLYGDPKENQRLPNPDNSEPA

Q: How did the IC50 (MMP-2) turn out when `CCC(C)Oc1cccc2oc(C(=O)Nc3ccc(-c4ccc(S(=O)(=O)N[C@H](C(=O)O)C(C)C)cc4)cc3)c(C)c12` (stereo partly drawn) [Example 53, L-2-{4′-[(4-sec-Butoxy-3-methyl-benzofuran-2-carbonyl)-amino]-biphenyl-4-sulfonylamino}-3-methyl-butyric acid] was run?
A: Its IC50 is 10 µM.

Q: What about the IC50 (MMP-7) of the same compound?
A: Its IC50 is 2.6 µM.

Q: And the IC50 (MMP-9)?
A: Its IC50 is greater than 4 µM.

Q: What about the IC50 (MMP-13) of the same compound?
A: Its IC50 is 0.017 µM.

Q: How did the IC50 (MMP-2) turn out when `COc1c(Br)ccc2oc(COc3ccc(-c4ccc(S(=O)(=O)N[C@@H](C(=O)O)C(C)C)cc4)cc3)c(C)c12` [Example 136, D-2-[4′-(5-Bromo-4-methoxy-3-methyl-benzofuran-2-ylmethoxy)-biphenyl-4-sulfonylamino]-3-methyl-butyricacid] was run?
A: Its IC50 is 0.135 µM.

Q: And the IC50 (MMP-7)?
A: Its IC50 is 1.1 µM.

Q: And the IC50 (MMP-9)?
A: Its IC50 is greater than 7 µM.

Q: What about the IC50 (MMP-12) of the same compound?
A: Its IC50 is 0.02 µM.

Q: And the IC50 (MMP-13)?
A: Its IC50 is 0.0018 µM.

Q: And the IC50 (MMP-14)?
A: Its IC50 is 5 µM.

Q: And the IC50 (Aggrecanase-1)?
A: Its IC50 is 0.43 µM.

Q: What about the IC50 (MMP-1) of the same compound?
A: Its IC50 is 400 µM.

Q: What does the source list for `COCCCc1cccc2oc(C(=O)Nc3ccc(-c4ccc(S(=O)(=O)N[C@H](C(=O)O)C(C)C)cc4)cc3)c(C)c12` [Example 30, L-2-(4′-{[4-(3-Methoxy-propyl)-3-methyl-benzofuran-2-carbonyl]-amino}-biphenyl-4-sulfonylamino)-3-methyl-butyric acid]?
A: IC50 (MMP-2): 4 µM; IC50 (MMP-7): 6 µM; IC50 (MMP-9): 1.5 µM; IC50 (MMP-12): 0.085 µM; IC50 (MMP-13): 0.011 µM; IC50 (MMP-14): 26.2 µM; IC50 (Aggrecanase-1): 14 µM; IC50 (MMP-1): > 18 µM
